Assay [1] has as its system pylorus-ligated Shay rat gastric ulcer. The experiment in a line: Pylorus-ligated Shay rat gastric ulcer. It is filed as in vivo, SD rats. The following applies: 80 mg/kg, ig; mean ± SD. As to the method: 50 SD rats with a body weight of 180 to 200 g and equal numbers of female and male were provided by the Experimental Animal Center of Nanjing Medical University, and the tests were conducted according to the methods in “Collection of Guidelines for Preclinical Studies of New Drugs (Western Medicines)” edited by China Ministry of Health.

For assay [2], the system named is acetic acid-burn induced gastric ulcer in rats. Nature of the assay: Acetic acid-burn induced gastric ulcer in rats. The settings on record: 80 mg/kg, ig; mean ± SD. It counts as in vivo. As to the method:
50 SD rats with a body weight of 180 to 200 g and equal numbers of female and male were provided by the Experimental Animal Center of Nanjing Medical University, and the tests were conducted according to the methods in “Collection of Guidelines for Preclinical Studies Of New Drugs (Western Medicines)” edited by China Ministry of Health.

Assay [3] relates to cysteamine-induced rat duodenal ulcer. Nature of the assay: Cysteamine-induced rat duodenal ulcer. The settings on record: 20 mg/kg. It counts as in vivo, SD rats. As to the method:
50 male SD rats with a body weight of 250 to 300 g were used, and cysteamine was commercially available from Sigma Company. The tests were conducted according to the methods in “Drug Discovery and Evaluation—Pharmacological Assays” (H. G. Vogel, W. H. Vogel. Chinese version, translated by Du Guanhua, published by Science Publishing House).

The subject of assay [4] is acetic acid-induced rat colonitis. Nature of the assay: 10% acetic acid-induced rat ulcerative colonitis. It is filed as in vivo, SD rats. The following applies: 10 mg/kg, mean ± SD. As to the method:
The test was conducted according to the method in the document (Ritzpatrick, R. et al., Agents Actions. 1990, 30:393-402). SD rats were subjected to rectoclysis to form models of colonitis. From the 4th day after the models had been made, the rats were intragastrically administrated for 4 days.

For the next assay, the system named is mouse gastric emptying. The experiment in a line: Mouse gastric emptying (phenol red method). It is filed as in vivo, Kunming mice. The settings on record: 0.1 mg/kg; mean ± SD. As to the method: 105 Kunming mice with a body weight of from 20 to 25 g and equal numbers of male and female were used. The test was conducted according to the methods in “Collection of Guidelines for Preclinical Studies of New Drugs (Western Medicines)” edited by China Ministry of Health, and the phenol red method (Shi G., et al. Gut, 41:612-618, 1997).

For assay [5], the system named is TNBS-induced rat colonitis. The experiment in a line: TNBS-induced rat colonitis. It is filed as in vivo, SD rats. The following applies: 0.3 g/kg, intragastric for 7 days; mean ± SD. As to the method: The test was counted according to the method in the document (Morris, C. P. et al: Gastroenterology. 1989, 96:795-803). TNBS was commercially available from Sigma Company. SD rats were subjected to rectoclysis of 100 mg/kg of TNBS to form models of colonitis. Each group included 10 rats. From the 14th day after the models had been made, the rats were intragastrically administrated for 7 days. The rats were killed by drawing their necks and were dissected, and their colon sections were histopathologically observed.

Assay [6] concerns anhydrous ethanol-induced rat gastric mucosa damage. Nature of the assay: Anhydrous ethanol-induced rat gastric mucosa damage. The settings on record: 100 mg/kg, ig; mean ± SD. It counts as in vivo, SD rats. As to the method:
60 SD rats with equal numbers of female and male were provided by the Experimental Animal Center of Nanjing Medical University, and the tests were conducted according to the methods in “Collection of Guidelines for Preclinical Studies of New Drugs (Western Medicines)” edited by China Ministry of Health.

Assay [7] relates to PGE2 content in gastric mucosa. Nature of the assay: PGE2 content in gastric mucosa of rat with indomethacin-induced gastric ulcer (radioimmunoassay). The settings on record: 100 mg/kg; mean ± SD. It counts as in vivo, SD rats. As to the method:
60 SD rats with a body weight of 180 to 200 g and equal numbers of male and female were used, Indomethacin was commercially available from Sigma Company. The PGE2 content was measured by radioimmunoassay. The tests were conducted according to the methods in “Drug Discovery and Evaluation—Pharmacological Assays” (H. G. Vogel, W. H. Vogel. Chinese version, translated by Du Guanhua, published by Science Publishing House).

`CN/C(=N/CCSCc1nc[nH]c1C)NC#N` [Cimetidine]: the Ulcer index in assay [1] was determined as 15.8 ± 1.5. Also, the “Ulcer area (mm^2)” value in assay [2] is 44.7 ± 38.4 mm^2.
Take `NC(N)=Nc1nc(CSCCC(N)=NS(N)(=O)=O)cs1` [Famotidine]: the “Inhibition ratio (%)” value in assay [3] was 27.27%. This molecule also returned a Ulcer index in assay [3] (mean ± SD) of 2.0 ± 1.3. For the same molecule, the “Score of ulcer index” value in assay [4] (intragastric for 4 days) was determined as 4.14 ± 3.76. For the same molecule, the “Ratio of bowel weight to body weight (×10^−2)” value in assay [4] is reported as 0.92 ± 0.45 ×10^−2.
Regarding `CN(C)C(=O)Oc1ccc[n+](C)c1` [Pyridostigmine bromide], in the assay on mouse gastric emptying, the “Amount of residual phenol red in stomach” value amounted to 0.47 ± 0.36 mg and the “Gastric emptying ratio (%)” value came to 93.8 ± 4.8 %.
For the molecule `O=C(O)c1cc(/N=N/c2ccc(S(=O)(=O)Nc3ccccn3)cc2)ccc1O` [Sulfasalazine], in assay [5], the “Increment of body weight” value was found to be 68.89 ± 21.64.
Molecule Bismuth Potassium Citrate gave a Ulcer index in assay [6] of 15.0 ± 6.0. In addition, the “PGE2 (pg/mg protein)” value in assay [7] is 170 ± 104 pg/mg protein.

The record behind these values is patent publication US20070219128A1, “Medical and health-care uses of pufferfish type I collagen extract and processes for producing said extract” (NANJING BESSON PHARMACY CO., LTD, priority 2003, published 2007).
